Consider six compounds from ChEMBL document CHEMBL1201862, “PubChem BioAssay data set” (2004).

Test systems include A549; COLO 205; HCT-15; IGROV-1; KM12; OVCAR-3; OVCAR-5; RXF 393; SF-268; SK-MEL-2; SNB-19; UACC-257; RPMI-8226; NCI-H522.
Experiment in all cases: NCI tumour cell line growth inhibition, 48 h

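Protocol summary: plate cells (96-well), add compound at 5 concentrations, incubate 48 h, interpolate endpoints linearly. GI50 = concentration required for 50% inhibition of growth.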 Calls of active or inactive are those of the source. Cut-off read from the data, not from the text of the source: active = GI50 up to about 1.1 µM and inactive = higher. A value given as a limit tells only on which side of the number the result lay.

`CCCCN(CCCC)C(=O)C(=O)C(C(=O)c1ccc(OC)cc1)c1ccc(OC)cc1` (stereo not given): the GI50 is > 100 µM (inactive) in the test with A549; > 100 µM (inactive) in the test with COLO 205; above 100 µM with HCT-15; > 100 µM (inactive) with IGROV-1; > 100 µM (inactive) in the test on KM12; > 100 µM (inactive) in the test on OVCAR-3. Besides, the GI50 was > 100 µM (inactive) in the test with OVCAR-5; 35.5 µM (inactive) in the test on RXF 393; > 100 µM (inactive) in the test with SF-268; > 100 µM (inactive) in the test on SK-MEL-2; > 100 µM (inactive) in the test on SNB-19; > 100 µM (inactive) in the test with UACC-257.

As for `NC(=O)c1ncn(Cc2ccccc2)c1CNC(N)=S`, the GI50 in the test on A549 is > 100 µM (inactive); in the test on COLO 205 it was > 100 µM (inactive); in the test with HCT-15, above 100 µM; in the test on IGROV-1, > 100 µM (inactive); in the test with KM12, > 100 µM (inactive); in the test on OVCAR-3, > 100 µM (inactive). Moreover, the GI50 with OVCAR-5, in the test with RPMI-8226, in the test on RXF 393, in the test on SF-268 and in the test with SNB-19 was > 100 µM (inactive) throughout.

With `C=CCN1C(=O)NC(=O)/C(=C/c2c3ccccc3cc3ccccc23)C1=O`, the GI50 was 21 µM (inactive) with A549; 19.9 µM (inactive) in the test with COLO 205; > 10 µM (inactive) with IGROV-1; 16.2 µM (inactive) in the test on KM12; 20.2 µM (inactive) with NCI-H522; 18.9 µM (inactive) in the test with OVCAR-3. The GI50 with OVCAR-5 is 20.5 µM (inactive); with RXF 393, 15.3 µM (inactive); in the test on SF-268 it was 24.5 µM (inactive); in the test on SK-MEL-2, 19.6 µM (inactive); in the test with SNB-19, 21.8 µM (inactive).

In the case of `C/C(=N\NC(=O)C[N+](C)(C)C)c1sc(-c2cccnc2)nc1C`, the GI50 in the test with A549 is > 100 µM (inactive); in the test with COLO 205, > 100 µM (inactive); in the test on IGROV-1 it was > 100 µM (inactive); in the test with KM12, > 100 µM (inactive); in the test on NCI-H522, 42.7 µM (inactive); in the test with OVCAR-3 it was > 100 µM (inactive). Moreover, the GI50 in the test on OVCAR-5 was > 100 µM (inactive); in the test on RPMI-8226, > 100 µM (inactive); with RXF 393 it was 52.1 µM (inactive); in the test with SF-268 it was > 100 µM (inactive); with SK-MEL-2, > 100 µM (inactive); in the test with UACC-257, > 100 µM (inactive).

For `CN1Cc2ccccc2C2(COc3ccccc3C2=O)C1` (stereo not given), the GI50 with A549 is > 100 µM (inactive); in the test with HCT-15 it was above 100 µM; in the test on IGROV-1, 28.7 µM (inactive); with NCI-H522, 98.2 µM (inactive); in the test on OVCAR-3, 77.8 µM (inactive); in the test with OVCAR-5, > 100 µM (inactive). The GI50 was 68.7 µM (inactive) in the test with RPMI-8226; > 100 µM (inactive) with RXF 393; > 100 µM (inactive) in the test with SF-268; > 100 µM (inactive) with SK-MEL-2; > 100 µM (inactive) in the test with SNB-19; 62.7 µM (inactive) in the test on UACC-257.

Regarding `CC1=C(Cl)C=CP(=O)(Oc2ccccc2)C1` (stereo not given), the GI50 in the test with A549 is 38.8 µM (inactive); in the test with COLO 205, 27.6 µM (inactive); with HCT-15 it was 74.3 µM; with IGROV-1, > 100 µM (inactive); in the test with KM12, > 100 µM (inactive); with NCI-H522, 15.6 µM (inactive). Also, the GI50 in the test with OVCAR-3 was > 100 µM (inactive); with OVCAR-5 it was > 100 µM (inactive); with SF-268 it was 29.1 µM (inactive); in the test with SK-MEL-2 it was 41.3 µM (inactive); in the test with SNB-19, > 100 µM (inactive); in the test with UACC-257, 71.6 µM (inactive).
